Where a SMILES comes first, the peptide text is derived from it. Bridges are numbered along the chain shown (N, C = ends). [ ]: non-standard residue; d: D form. The star is where a group is joined. hPhe(3-Cl-4-CF3) = N[C@@H](CCc1ccc(C(F)(F)F)c(Cl)c1)C(=O)O; NPrPhe(4-CF3) = CCCN[C@@H](Cc1ccc(C(F)(F)F)cc1)C(=O)O; NMeGly(cPent) = CN[C@H](C(=O)O)C1CCCC1; NMeD = CN[C@@H](CC(=O)O)C(=O)O; NMeL = CN[C@@H](CC(C)C)C(=O)O; Morpholide = C1CN(*)CCO1; Ac5c = NC1(C(=O)O)CCCC1; Sar = CNCC(=O)O
Experiments:
[1] = biological target: GDP-bound NRAS wild-type protein (Homo sapiens, UniProt P01111); experiment: Binding to NRAS by surface plasmon resonance (SPR), Single Cycle Kinetics; conditions: ratio of KD for GDP-bound NRAS wild-type protein to KD for KRAS, SPR
[2] = system: human lung cancer strain NCI-H441; experiment: cells; conditions: NCI-H441, 96 h, read-out: NCI-H441 IC50 (nM), NCI-H441 cell proliferation, 4 days, CellTiter-Glo;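 note: cell proliferation inhibition after four days measured by CellTiter-Glo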
[3] = biological target: GDP-bound HRAS wild-type protein (Homo sapiens, UniProt P01112); experiment: Binding to HRAS by surface plasmon resonance (SPR), Single Cycle Kinetics; conditions: ratio of KD for GDP-bound HRAS wild-type protein to KD for KRAS, SPR
Sequence of GDP-bound HRAS wild-type protein (P01112 whole entry): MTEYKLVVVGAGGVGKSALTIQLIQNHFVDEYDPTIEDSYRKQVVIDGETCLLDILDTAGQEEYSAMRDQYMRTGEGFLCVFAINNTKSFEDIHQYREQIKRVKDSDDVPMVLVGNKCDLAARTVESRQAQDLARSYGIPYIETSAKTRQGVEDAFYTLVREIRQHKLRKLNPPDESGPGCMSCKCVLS

Sequence of GDP-bound NRAS wild-type protein (P01111 whole entry): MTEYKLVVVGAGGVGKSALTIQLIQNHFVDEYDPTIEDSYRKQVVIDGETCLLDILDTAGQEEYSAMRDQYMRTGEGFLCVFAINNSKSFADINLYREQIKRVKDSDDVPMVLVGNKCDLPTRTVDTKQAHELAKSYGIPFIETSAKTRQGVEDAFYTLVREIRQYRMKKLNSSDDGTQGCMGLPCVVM

| IC50 [2] | SMILES | NRAS/KRAS (KD ratio) [1] | HRAS/KRAS (KD ratio) [3] |
| --- | --- | --- | --- |
| 6.5 nM | CC[C@H](C)[C@@H]1NC(=O)[C@H](CC2CC2)N(C)C(=O)C[C@@H](C(=O)N(C)C)N(C)C(=O)[C@H](C2CCCC2)N(C)C(=O)C2(CCC2)N(C)C(=O)[C@@H]2C[C@@H](C)CN2C(=O)[C@H](CCc2cc(F)c(C(F)(F)F)c(F)c2)NC(=O)CN(C)C(=O)[C@H](Cc2ccc(C)cc2)N2CC/C=C\C[C@@H](C2=O)N(C)C(=O)CN(C)C1=O [PP1800] | A (a compound having 10 or more and less than 20 is denoted as A) | A (a compound having 10 or more and less than 20 is denoted as A) |
| 15.7 nM | CCCN(C)C(=O)[C@@H]1CC(=O)N(C)[C@@H](COCC)C(=O)N[C@@H]([C@@H](C)CC)C(=O)N(C)CC(=O)N(C)[C@H]2C/C=C\CCN(C2=O)[C@@H](Cc2ccc(C(F)(F)F)cc2)C(=O)N(C)CC(=O)N[C@@H](CCc2cc(F)c(C(F)(F)F)c(F)c2)C(=O)N2C[C@@H](C)C[C@H]2C(=O)NC2(CCC2)C(=O)N(C)[C@@H](C2CCCC2)C(=O)N1C [PP2002] | – | – |
| 22.6 nM | CC[C@H](C)[C@@H]1NC(=O)[C@H](CC2CC2)N(C)C(=O)C[C@@H](C(=O)N(C)CC)N(C)C(=O)[C@H](C2CCCC2)N(C)C(=O)C2(CCC2)NC(=O)[C@@H]2C[C@H](C)CN2C(=O)[C@H](CCc2ccc(C(F)(F)F)c(OC)c2)NC(=O)CN(C)C(=O)[C@H](Cc2ccc(C)cc2)N2CC/C=C\C[C@@H](C2=O)N(C)C(=O)CN(C)C1=O [PP1897] | – | – |

More lines, now with the values behind:

| SMILES | IC50 [2] | NRAS/KRAS (KD ratio) [1] | HRAS/KRAS (KD ratio) [3] |
| --- | --- | --- | --- |
| CC[C@H](C)[C@@H]1NC(=O)[C@H](CC)N(C)C(=O)C[C@@H](C(=O)N(C)CC)N(C)C(=O)[C@H](C2CCCC2)N(C)C(=O)C2(CC(C)(C)C2)NC(=O)[C@@H]2C[C@@H](C)CN2C(=O)[C@H](CCc2cc(F)c(C(F)(F)F)c(F)c2)NC(=O)CN(C)C(=O)[C@H](Cc2ccc(C)cc2)N2CC/C=C\C[C@@H](C2=O)N(C)C(=O)CN(C)C1=O [PP1884] | 17.3 nM | – | – |
| CCO[C@@H]1C[C@H]2C(=O)NC3(CCC3)C(=O)N(C)[C@@H](C3CCCC3)C(=O)N(C)[C@H](C(=O)N(C)CC)CC(=O)N(C)[C@@H](C(C)C)C(=O)N[C@@H]([C@@H](C)CC)C(=O)N(C)CC(=O)N(C)[C@H]3C/C=C\CCN(C3=O)[C@@H](Cc3ccc(C(F)(F)F)cc3)C(=O)N(C)CC(=O)N[C@@H](CCc3ccc(C(F)(F)F)c(OC)c3)C(=O)N2C1 [PP2019] | 4.5 nM | – | – |
| CCCN(C)C(=O)[C@@H]1CC(=O)N(C)[C@@H](CCOC)C(=O)N[C@@H]([C@@H](C)CC)C(=O)N(C)CC(=O)N(C)[C@H]2C/C=C\CCN(C2=O)[C@@H](Cc2ccc(C(F)(F)F)cc2)C(=O)N(C)CC(=O)N[C@@H](CCc2cc(F)c(C(F)(F)F)c(F)c2)C(=O)N2C[C@H](OCC)C[C@H]2C(=O)NC2(CC(C)(C)C2)C(=O)N(C)[C@@H](C2CCCC2)C(=O)N1C [PP2033] | 11.8 nM | – | – |
| CCCN1C(=O)CN(C)C(=O)CN(C)C(=O)[C@H]([C@@H](C)CC)NC(=O)[C@H](CC(C)C)N(C)C(=O)C[C@@H](C(=O)N2CCOCC2)N(C)C(=O)[C@H](C2CCCC2)N(C)C(=O)C2(CCCC2)NC(=O)[C@H](C)NC(=O)[C@H](CCc2ccc(C(F)(F)F)c(Cl)c2)NC(=O)CN(C)C(=O)[C@@H]1Cc1ccc(C(F)(F)F)cc1 [PP1914] ([NMeL]I[Sar][Sar][NPrPhe(4-CF3)][Sar][hPhe(3-Cl-4-CF3)]A[Ac5c][NMeGly(cPent)][NMeD]-Morpholide; lactam N-11) | 39.7 nM | – | – |
| CCC[C@H]1C(=O)N[C@@H]([C@@H](C)CC)C(=O)N(C)CC(=O)N(C)[C@H]2C/C=C\CCN(C2=O)[C@@H](Cc2ccc(C)cc2)C(=O)N(C)CC(=O)N[C@@H](CCc2ccc(C(F)(F)F)c(Cl)c2)C(=O)N2C[C@H](C)C[C@H]2C(=O)NC2(CCC2)C(=O)N(C)[C@@H](C2CCCC2)C(=O)N(C)[C@H](C(=O)N(C)CC)CC(=O)N1C [PP1850] | 49.1 nM | – | – |
